# Experimental data published in patent US20220211478A1, “SURGICAL SYSTEM AND METHODS OF USE” (priority 2021, published 2022).
# Key:
# [1] = tested on: myofibroblast formation; conditions: capsular contracture with breast implants; Ajmal et al. (2003); cited from earlier work
# [2] = in vivo
# From the text: (§1) However, in some embodiments, however, higher doses of tranexamic acid are used for topical applications to account for tranexamic acid being widely distributed throughout the extracellular and intracellular compartments when given preoperatively.
# [3] = tested on: fibrinolysis; experiment: prevention / reversal of fibrinolysis; conditions: relative to doses of the non-GLP acute porcine study
# From the text: as §1
Structure (SMILES),effect on myofibroblast formation [1],time to reach plasma concentrations [2] [min],dose effective in reversing fibrinolysis [3]
"O=S(=O)([O-])CCS.[Na+] [MESNA, sodium 2-mercaptoethane sulfonate]",diminish myofibroblast formation,–,–
"NC[C@H]1CC[C@H](C(=O)O)CC1 [tranexamic acid, trans-4-(aminomethyl)cyclohexanecarboxylic acid]",–,5 to 15,one tenth of the doses used in the non-GLP acute porcine study
